# Measurements published in patent US6777387B2, “Terminally-branched polymeric linkers containing extension moieties and polymeric conjugates containing the same” (Enzon Pharmaceuticals, Inc., priority 2000, dated 2004).
# Experiments:
# [1] = tested on: human non-small cell lung carcinoma (LX-1); test: Efficacy against subcutaneous LX-1 xenograft in nude mice; assay type: in vivo; conditions: i.v.; for T/C(%) at Day 14: median tumor volume treated vs control when control ~1000 mm^3; for T/C (%) at Day 21: median tumor volume treated vs control when control ~2000 mm^3
# Method: ^13C NMR spectra were obtained at 67.80 MHz on the JNM GSX-270 or 75.46 MHz on the Varian MercuryVX-300. Chemical shifts (δ) are reported in parts per million (ppm) downfield from tetramethylsilane (TMS) and coupling constants (J values) are given in hertz (Hz). All PEG conjugated compounds were dissolved (˜15 mg/mL) in sterile saline (0.9%) for injection prior to in vivo drug treatments and were given as their ara-C equivalents (absolute amount of ara-C given).
# Athymic nude mice were implanted subcutaneous with a 4-5 mm^3 tissue fragment of LX-1 collected from donor mice. The tumor trocar site was observed twice weekly and measured once palpable. The tumor volume for each mouse was determined by measuring two dimensions with calipers and calculated using the formula: tumor volume=(length×width^2)/2. […] The mice were sorted to evenly distribute tumor size, grouped into 4 to 6 mice/group, and ear punched for permanent identification. Drugs were administered intravenously q3d×4 (Day 1, 4, 7 and 10) via the tail vein at an approximate rate of 0.5 mL per minute. Compounds were given both at an equal molar basis (absolute amount of active) of 20 mg/kg and at close their respective MTD (Ara-C, 100 mg/kg/dose (toxicity); PEG-AraC, 40 to 60 mg/kg/dose (volume). Mouse weight and tumor size were measured at the beginning of study and twice weekly through week 4. Drug effectiveness was determined by comparing tumor growth in treated versus untreated (no vehicle) control mice. Five types of endpoints were used as the basis for comparison: (a) mean tumor volumes at Day 28; (b) mean percent change in individual tumor volumes from initial; (c) percent difference in tumor volume (%T/C), measured when the control group's median tumor volume reached approximately 800-1100 mm^3 (exponential growth phase); (d) percent difference in tumor volume (%T/C) at Day 21 (˜2000 mm^3) and (e) the number of tumor regression (smaller tumor volume at Day 21 (˜2000 mm^3) and (e) the number of tumor regression (smaller tumor volume on Day 28 compared to Day 1) per group.
# P388/0 = test: Cytotoxicity assay, P388/0 cells (Alamar Blue); assay type: cell-based; conditions: 37° C., 3 days incubation, duplicate, SD ±10%
# Method: Cell Lines and Cytotoxicity Assays. Studies using P388/0 cell lines for IC50 (drug concentration inhibiting growth of cells by 50%) were maintained and conducted as previously reported. Briefly, for IC50 determination, cells were seeded into the microwell plates at a density […] per 50 μL per well. Plates were incubated at 37° C. in a humidified incubator with 5% CO2 for 3 days. Cell growth was measured by the addition of 10 μL/well of Alamar Blue (Alamar Biosciences, Inc., Sacramento, Calif.) and the plates were incubated a further 4 hours at 37° C. The IC50 values for each compound were determined from absorbance versus dilution factor plots. […] All cell lines were periodically tested for Mycoplasma and were Mycoplasma free.
smiles,measurement,setting,value
"Nc1ccn([C@@H]2O[C@H](CO)[C@@H](O)[C@@H]2O)c(=O)n1 [Ara-C, ara-C]",Complete Regression (#/Grp),[1]; total dose 80 mg/kg,0/4
same,Regression at Day 28 (#/Grp),[1]; total dose 80 mg/kg,0/4
same,T/C(%) at Day 14,[1]; total dose 80 mg/kg,51.1%
same,T/C (%) at Day 21,[1]; total dose 80 mg/kg,52.2%
same,Complete Regression (#/Grp),[1]; total dose 400 mg/kg,0/6
same,Regression at Day 28 (#/Grp),[1]; total dose 400 mg/kg,1/6
same,T/C(%) at Day 14,[1]; total dose 400 mg/kg,16.7%
same,T/C (%) at Day 21,[1]; total dose 400 mg/kg,33.4%
same,IC50,P388/0,10 nM
